Data reported in ChEMBL document CHEMBL1201862, “PubChem BioAssay data set” (2004).
Calls of active or inactive are those of the source.

How the values were obtained:
[1] = HPDE-C7 pancreatic duct cell viability loss – fluorescence, HTS (AID 430); assay type: functional, cell-based; settings: Homo sapiens
[2] = viability loss of HPDE-C7K cells – cell-based, fluorescence, HTS, primary screen (AID 431); assay type: functional; settings: Homo sapiens
[3] = viability of PTEN-deleted HCT116 cells – cell-based, HCT116 PTEN knockout, dose response (AID 1047); assay type: functional;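 further: HCT116 colon tumor cells with PTEN knocked out; cells exposed to compound for 60 hours before readout; potency for loss of cell viability measured by luminescence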
[4] = target: Peroxisome proliferator-activated receptor gamma/Nuclear receptor corepressor 2 (Homo sapiens, UniProt P37231+Q9Y618); assay: Counterscreen for NR2E3 inverse agonists: TR-FRET-based biochemical high throughput dose response assay to identify inverse agonists of the interaction between peroxisome proliferator-activated receptor gamma (PPARg) and nuclear receptor co-repressor 2 (NCOR2).; assay type: functional
[5] = target: Photoreceptor-specific nuclear receptor (Homo sapiens, UniProt Q9Y5X4); assay: ligands suppressing NR2E3 nuclear receptor activity – biochemical, TR-FRET, dose response (AID 463256); assay type: functional
[6] = viability of HCT116 lacking mutant beta-catenin – cell-based, human colon tumor, dose response (AID 1045); assay type: functional;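 further: HCT116 colon tumor cells with beta catenin knocked out; cells exposed to compound for 60 hours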
[7] = target: T1, Caspase-3 (Homo sapiens, UniProt P42574); assay type: functional
T1 sequence (P42574 whole entry): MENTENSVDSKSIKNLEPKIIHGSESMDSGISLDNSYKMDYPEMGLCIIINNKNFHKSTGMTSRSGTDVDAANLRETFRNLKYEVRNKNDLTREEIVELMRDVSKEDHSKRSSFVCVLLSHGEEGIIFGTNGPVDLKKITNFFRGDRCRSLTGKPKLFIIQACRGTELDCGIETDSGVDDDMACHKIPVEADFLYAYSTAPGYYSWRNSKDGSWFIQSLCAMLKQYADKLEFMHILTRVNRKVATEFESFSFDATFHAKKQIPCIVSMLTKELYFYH

[8] = target: T2, Sentrin-specific protease 7 (Homo sapiens, UniProt Q9BQF6); assay type: functional;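 further: Luminescence-based dose-response confirmation of ultra-high-throughput screening hits, measuring inhibition of SENP7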
T2 sequence (Q9BQF6 whole entry): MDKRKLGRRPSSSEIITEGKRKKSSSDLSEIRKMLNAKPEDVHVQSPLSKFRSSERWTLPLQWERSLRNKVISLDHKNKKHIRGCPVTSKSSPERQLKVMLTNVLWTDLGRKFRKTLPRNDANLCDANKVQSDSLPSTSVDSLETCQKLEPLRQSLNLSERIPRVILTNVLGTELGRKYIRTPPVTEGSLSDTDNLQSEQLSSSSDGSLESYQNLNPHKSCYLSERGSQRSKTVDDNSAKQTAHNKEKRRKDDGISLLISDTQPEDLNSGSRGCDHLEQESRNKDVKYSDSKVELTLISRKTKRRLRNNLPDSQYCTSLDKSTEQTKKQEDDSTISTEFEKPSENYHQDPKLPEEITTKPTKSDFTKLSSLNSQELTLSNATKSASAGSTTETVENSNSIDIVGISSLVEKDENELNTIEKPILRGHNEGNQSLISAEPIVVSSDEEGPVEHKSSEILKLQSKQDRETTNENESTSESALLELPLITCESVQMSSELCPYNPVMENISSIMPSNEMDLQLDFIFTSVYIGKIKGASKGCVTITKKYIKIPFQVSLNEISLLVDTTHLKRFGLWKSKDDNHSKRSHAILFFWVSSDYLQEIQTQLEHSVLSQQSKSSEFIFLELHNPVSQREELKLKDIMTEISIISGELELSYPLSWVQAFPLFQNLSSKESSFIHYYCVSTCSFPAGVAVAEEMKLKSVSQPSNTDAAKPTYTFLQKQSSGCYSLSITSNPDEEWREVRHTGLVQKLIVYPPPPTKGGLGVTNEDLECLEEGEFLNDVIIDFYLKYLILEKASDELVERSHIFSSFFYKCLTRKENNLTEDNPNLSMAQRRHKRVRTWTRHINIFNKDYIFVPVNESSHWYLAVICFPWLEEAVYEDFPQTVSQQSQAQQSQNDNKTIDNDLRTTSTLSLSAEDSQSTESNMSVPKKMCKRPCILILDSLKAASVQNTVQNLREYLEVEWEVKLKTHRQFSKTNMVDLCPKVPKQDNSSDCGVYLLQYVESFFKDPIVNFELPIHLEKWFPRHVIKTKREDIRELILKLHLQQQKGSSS

[9] = target: T3, Sentrin-specific protease 6 (Homo sapiens, UniProt Q9GZR1); assay type: functional
T3 sequence (Q9GZR1 whole entry): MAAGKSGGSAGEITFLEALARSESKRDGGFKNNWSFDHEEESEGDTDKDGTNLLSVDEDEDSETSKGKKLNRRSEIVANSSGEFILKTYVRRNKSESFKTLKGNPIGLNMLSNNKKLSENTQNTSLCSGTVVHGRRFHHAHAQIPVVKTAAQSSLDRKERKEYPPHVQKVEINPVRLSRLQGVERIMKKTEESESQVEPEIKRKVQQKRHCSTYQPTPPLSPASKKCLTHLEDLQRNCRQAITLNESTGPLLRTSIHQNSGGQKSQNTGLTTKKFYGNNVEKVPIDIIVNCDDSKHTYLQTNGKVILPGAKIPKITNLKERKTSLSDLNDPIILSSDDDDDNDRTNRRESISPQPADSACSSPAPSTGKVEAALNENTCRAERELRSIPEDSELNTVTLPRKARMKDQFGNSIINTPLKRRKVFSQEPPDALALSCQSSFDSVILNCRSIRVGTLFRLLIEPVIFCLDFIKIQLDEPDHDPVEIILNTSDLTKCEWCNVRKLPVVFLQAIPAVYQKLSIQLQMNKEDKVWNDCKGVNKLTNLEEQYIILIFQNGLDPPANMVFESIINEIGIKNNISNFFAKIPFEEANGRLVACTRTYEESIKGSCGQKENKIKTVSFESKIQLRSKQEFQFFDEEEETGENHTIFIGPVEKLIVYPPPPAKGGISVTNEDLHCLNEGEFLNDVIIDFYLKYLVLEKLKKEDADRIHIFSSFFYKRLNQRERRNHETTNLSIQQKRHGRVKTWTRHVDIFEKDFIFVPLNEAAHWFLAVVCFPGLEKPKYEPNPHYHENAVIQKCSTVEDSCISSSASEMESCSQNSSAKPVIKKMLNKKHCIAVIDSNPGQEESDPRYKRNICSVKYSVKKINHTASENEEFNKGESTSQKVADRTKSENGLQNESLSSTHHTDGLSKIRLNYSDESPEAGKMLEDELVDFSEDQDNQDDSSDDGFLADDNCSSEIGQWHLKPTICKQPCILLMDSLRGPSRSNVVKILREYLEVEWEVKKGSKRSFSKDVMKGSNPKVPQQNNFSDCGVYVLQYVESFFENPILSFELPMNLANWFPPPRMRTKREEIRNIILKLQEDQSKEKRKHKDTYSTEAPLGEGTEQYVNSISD

[10] = target: T4, Sentrin-specific protease 8 (Homo sapiens, UniProt Q96LD8); assay type: functional;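 further: luminescence read-out of SENP8 inhibition, dose-response confirmation following an ultra-high-throughput screen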
T4 sequence (Q96LD8 whole entry): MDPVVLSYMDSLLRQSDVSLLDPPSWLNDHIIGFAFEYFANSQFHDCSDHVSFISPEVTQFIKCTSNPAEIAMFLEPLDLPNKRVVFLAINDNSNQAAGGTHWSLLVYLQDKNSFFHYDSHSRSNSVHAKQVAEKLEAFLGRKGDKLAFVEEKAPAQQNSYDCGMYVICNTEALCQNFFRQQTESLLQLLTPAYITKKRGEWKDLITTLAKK

[11] = target: T4, Sentrin-specific protease 8; assay: inhibition of human SENP8 cleavage activity – biochemical, luminescence, SAR follow-up (AID 504501); assay type: functional
[12] = target: T1, Caspase-3; assay: SAR Analysis of small molecule inhibitors of Sentrin-specific proteases (SENPs) using a Caspase-3 Selectivity assay. [Related pubchem assays (depositor defined):AID2540, AID2599, AID434973, AID489001]; assay type: functional
[13] = target: T3, Sentrin-specific protease 6; assay: SAR Analysis of small molecule inhibitors of Sentrin-specific protease 6 (SENP6) using a Luminescent assay. [Related pubchem assays (depositor defined):AID2582, AID2599]; assay type: functional
[14] = target: T2, Sentrin-specific protease 7; assay: inhibition of human SENP7 cleavage activity – biochemical, luminescence, SAR follow-up (AID 504497); assay type: functional
[15] = target: Neuropeptide Y receptor type 2 (Homo sapiens, UniProt P49146); assay: Fluorescence-based counterscreen for agonists of NPY-Y1: cell-based high-throughput dose response assay for agonists of NPY-Y2.; assay type: functional
[16] = target: T5, Streptokinase A (Streptococcus pyogenes serotype M1, UniProt P10520); assay: viability-normalized secreted streptokinase activity reduction – plasminogen activation absorbance, OD405, dose response (AID 1914); assay type: functional, Streptococcus pyogenes M1 GAS;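 further: secreted streptokinase activity via plasminogen activation per viability signal from cell pellet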
T5 sequence (P10520 whole entry): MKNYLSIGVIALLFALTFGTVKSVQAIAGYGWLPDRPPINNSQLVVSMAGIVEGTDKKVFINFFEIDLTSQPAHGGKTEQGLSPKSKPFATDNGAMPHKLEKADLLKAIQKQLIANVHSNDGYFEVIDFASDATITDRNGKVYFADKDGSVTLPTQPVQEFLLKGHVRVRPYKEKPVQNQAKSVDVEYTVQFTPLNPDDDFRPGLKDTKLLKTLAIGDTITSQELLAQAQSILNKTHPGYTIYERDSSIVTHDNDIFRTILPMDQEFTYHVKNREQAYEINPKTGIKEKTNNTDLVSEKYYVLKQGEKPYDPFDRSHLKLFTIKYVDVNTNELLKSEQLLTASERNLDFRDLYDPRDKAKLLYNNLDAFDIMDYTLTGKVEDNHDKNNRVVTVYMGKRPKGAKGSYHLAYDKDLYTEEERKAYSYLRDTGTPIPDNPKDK

[17] = target: Neuropeptide Y receptor type 1 (Homo sapiens, UniProt P25929); assay: Fluorescence-based dose response cell-based high-throughput screening assay for agonists of NPY-Y1. [Related pubchem assays: 1697 (Screening assay (NPY-Y1 agonists).), 1359 (Screening assay (NPY-Y2 potentiators or agonists).), 1304 (Screening assay (NPY-Y1 potentiators or agonists).), 1704 (Screening assay (CNGC inhibitors).), 1791 (Summary AID.)]; assay type: functional
Neuropeptide Y receptor type 1, sequence (P25929 whole entry): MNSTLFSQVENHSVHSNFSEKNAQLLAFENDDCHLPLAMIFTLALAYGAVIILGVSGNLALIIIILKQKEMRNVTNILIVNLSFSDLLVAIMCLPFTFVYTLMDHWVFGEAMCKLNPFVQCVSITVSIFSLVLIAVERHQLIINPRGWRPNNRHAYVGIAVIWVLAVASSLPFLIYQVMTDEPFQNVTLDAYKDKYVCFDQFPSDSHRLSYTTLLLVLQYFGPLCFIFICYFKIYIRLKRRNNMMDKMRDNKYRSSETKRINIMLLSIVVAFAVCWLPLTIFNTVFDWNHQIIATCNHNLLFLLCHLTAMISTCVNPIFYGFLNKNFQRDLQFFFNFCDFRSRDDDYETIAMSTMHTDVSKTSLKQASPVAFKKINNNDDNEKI

Peroxisome proliferator-activated receptor gamma/Nuclear receptor corepressor 2, sequence (P37231 whole entry): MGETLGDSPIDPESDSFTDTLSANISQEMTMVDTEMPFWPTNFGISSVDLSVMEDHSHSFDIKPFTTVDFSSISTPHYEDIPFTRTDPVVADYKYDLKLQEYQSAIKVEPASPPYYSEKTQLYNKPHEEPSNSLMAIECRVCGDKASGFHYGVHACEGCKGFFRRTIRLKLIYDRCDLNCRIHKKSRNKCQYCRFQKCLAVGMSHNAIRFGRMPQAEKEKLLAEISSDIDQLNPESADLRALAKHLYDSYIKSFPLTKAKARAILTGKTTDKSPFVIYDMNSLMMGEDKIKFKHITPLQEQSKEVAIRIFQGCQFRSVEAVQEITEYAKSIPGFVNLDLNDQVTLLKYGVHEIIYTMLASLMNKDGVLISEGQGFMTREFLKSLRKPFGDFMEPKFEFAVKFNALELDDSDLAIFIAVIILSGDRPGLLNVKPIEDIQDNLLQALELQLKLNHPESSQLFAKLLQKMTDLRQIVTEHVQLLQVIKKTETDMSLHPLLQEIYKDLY
Peroxisome proliferator-activated receptor gamma/Nuclear receptor corepressor 2, sequence (Q9Y618 whole entry): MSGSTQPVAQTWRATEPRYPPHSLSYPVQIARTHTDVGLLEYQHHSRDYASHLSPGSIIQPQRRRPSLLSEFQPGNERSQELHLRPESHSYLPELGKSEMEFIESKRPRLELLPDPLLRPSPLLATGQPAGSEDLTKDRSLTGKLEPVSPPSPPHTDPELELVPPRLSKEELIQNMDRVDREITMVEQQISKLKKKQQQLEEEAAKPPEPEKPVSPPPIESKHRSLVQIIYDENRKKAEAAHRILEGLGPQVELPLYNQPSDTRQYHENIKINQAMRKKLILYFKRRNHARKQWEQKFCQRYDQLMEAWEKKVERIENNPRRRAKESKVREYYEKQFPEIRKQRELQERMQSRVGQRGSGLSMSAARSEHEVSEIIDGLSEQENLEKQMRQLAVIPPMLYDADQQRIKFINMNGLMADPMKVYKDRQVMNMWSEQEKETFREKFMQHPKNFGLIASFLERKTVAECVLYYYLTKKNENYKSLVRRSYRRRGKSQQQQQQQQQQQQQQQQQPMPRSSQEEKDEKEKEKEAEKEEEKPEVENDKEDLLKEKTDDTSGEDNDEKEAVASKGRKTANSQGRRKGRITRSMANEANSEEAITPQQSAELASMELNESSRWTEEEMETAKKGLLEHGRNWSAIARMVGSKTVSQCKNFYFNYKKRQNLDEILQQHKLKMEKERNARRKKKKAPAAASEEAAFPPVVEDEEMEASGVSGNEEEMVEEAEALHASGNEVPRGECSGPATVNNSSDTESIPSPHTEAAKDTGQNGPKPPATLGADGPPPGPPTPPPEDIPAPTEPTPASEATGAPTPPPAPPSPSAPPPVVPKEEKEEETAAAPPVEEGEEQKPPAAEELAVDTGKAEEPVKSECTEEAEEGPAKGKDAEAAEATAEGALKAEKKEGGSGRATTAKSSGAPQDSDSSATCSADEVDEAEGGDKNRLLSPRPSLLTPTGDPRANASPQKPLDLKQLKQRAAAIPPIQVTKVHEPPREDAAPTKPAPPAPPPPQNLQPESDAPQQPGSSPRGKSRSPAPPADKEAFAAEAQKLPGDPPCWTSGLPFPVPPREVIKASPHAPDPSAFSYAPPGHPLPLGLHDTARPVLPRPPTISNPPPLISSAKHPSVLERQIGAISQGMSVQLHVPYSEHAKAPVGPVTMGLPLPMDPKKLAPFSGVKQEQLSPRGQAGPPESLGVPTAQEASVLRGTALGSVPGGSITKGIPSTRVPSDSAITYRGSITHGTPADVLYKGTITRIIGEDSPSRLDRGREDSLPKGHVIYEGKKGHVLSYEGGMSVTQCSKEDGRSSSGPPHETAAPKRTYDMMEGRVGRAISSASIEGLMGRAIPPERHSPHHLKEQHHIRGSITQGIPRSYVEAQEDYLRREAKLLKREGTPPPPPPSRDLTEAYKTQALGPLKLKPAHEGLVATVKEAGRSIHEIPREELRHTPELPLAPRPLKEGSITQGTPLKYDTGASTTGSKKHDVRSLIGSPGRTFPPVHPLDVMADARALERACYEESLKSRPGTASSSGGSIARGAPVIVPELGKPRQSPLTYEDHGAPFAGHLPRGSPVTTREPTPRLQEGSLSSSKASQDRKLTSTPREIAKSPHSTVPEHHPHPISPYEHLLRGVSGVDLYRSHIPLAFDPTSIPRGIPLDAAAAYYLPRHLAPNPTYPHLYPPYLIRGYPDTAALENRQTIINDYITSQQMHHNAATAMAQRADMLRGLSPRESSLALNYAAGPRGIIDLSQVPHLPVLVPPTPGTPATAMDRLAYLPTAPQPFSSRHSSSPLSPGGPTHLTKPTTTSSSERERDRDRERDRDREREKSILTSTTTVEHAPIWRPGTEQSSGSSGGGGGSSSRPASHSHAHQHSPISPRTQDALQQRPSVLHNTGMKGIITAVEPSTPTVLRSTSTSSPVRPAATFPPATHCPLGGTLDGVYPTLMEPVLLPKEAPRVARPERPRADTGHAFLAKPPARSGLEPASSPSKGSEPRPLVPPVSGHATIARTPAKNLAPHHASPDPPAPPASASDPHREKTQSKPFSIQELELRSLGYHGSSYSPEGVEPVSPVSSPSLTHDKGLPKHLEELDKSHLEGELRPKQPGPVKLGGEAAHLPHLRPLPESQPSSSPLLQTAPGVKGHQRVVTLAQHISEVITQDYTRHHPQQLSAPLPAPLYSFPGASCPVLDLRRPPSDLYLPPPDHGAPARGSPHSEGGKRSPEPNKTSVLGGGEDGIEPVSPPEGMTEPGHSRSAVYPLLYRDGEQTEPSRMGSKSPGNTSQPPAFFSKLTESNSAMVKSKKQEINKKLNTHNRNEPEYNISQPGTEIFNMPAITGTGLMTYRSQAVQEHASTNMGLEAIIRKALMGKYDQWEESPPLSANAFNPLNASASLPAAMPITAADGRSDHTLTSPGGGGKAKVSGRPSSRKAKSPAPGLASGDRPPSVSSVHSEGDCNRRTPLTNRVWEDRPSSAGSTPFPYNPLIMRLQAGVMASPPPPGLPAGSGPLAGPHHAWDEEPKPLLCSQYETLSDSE
Neuropeptide Y receptor type 2, sequence (P49146 whole entry): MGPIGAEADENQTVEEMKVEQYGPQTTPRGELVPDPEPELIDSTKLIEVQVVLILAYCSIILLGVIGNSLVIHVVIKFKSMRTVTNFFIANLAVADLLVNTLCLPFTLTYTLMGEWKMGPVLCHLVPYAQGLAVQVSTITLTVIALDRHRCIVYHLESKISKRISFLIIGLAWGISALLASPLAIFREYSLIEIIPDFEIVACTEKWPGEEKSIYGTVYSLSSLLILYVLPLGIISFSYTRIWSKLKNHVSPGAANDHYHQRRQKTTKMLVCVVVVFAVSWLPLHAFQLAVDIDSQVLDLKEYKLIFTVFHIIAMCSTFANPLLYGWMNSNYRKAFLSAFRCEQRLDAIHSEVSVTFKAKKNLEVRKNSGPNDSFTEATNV
Photoreceptor-specific nuclear receptor, sequence (Q9Y5X4 whole entry): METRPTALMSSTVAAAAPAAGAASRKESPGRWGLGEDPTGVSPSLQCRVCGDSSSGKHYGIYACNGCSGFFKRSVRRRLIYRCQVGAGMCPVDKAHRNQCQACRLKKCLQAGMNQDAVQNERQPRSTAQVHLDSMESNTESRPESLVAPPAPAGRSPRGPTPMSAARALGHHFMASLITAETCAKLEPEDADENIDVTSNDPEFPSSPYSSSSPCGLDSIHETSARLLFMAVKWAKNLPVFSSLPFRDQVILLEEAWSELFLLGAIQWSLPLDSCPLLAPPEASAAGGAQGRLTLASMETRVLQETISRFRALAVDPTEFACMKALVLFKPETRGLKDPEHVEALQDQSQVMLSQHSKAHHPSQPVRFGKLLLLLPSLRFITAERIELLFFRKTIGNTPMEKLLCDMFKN

## Cc1cc(C(=O)Nc2sc3c(c2C#N)CCC(C)C3)cs1 (configuration not stated)
[1]
  EC50: > 20 µM (not active)
[2]
  EC50: > 20 µM (not active)

## Cc1cc2nc(-c3ccc(SCC(=O)Nc4ccc(S(=O)(=O)NC5CC5)cc4)nc3)[nH]c2cc1C
[3]
  EC50: 22.7 µM (active)
[4]
  IC50: 4.15 µM (active)
[5]
  IC50: > 39.8 µM (not active)
[6]
  EC50: 24.7 µM (active)
[7]
  IC50: 21.3 µM (active)
[8]
  IC50: 2.43 µM (active)
[9]
  IC50: > 100 µM (inactive)
[10]
  IC50: > 100 µM (inactive)
[11]
  IC50: > 99 µM (inactive)
[12]
  IC50: 14.4 µM (active)
[13]
  IC50: > 99 µM (inactive)
[14]
  IC50: 2.75 µM (active)

## CCOc1ccc(NC(=S)NNC(=S)Nc2cccc(C(F)(F)F)c2)cc1
[15]
  EC50: > 35.4 µM (not active)
[16]
  EC50: > 150 µM (not active)
[17]
  EC50: 27.3 µM (not active)
